The values that follow come from US11291655B2, “RAD51 inhibitors” (Cyteir Therapeutics, Inc., priority 2017, dated 2022).

SMILES strings stand for the structures. pEC50: −log10 of the molar value.

The subject of the assay is Daudi Cell Culture. Description: Compound primary screening in Daudi cell culture. Type of assay: cell-based. Particulars: Homo sapiens, 168 h; Daudi cells, 1250 cells per well, reads on Day 7. The procedure, abridged:
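Daudi cells seeded at 1250 cells per well in 130 ul medium at 37° C. and treated with serially diluted compounds added from a media master plate; read on Day 7.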
Usually pEC50 stands for −log10 of the EC50, conventionally taken in molar units. Read a low pEC50 as a high EC50. Take `COC(=O)Nc1ccc(-c2ncc(-c3ccc(NC(C)=O)cc3S(=O)(=O)NC(C)(C)C)s2)cc1` [Compound G2]: the pEC50 was over 5.00.

Molecule `CC(=O)Nc1ccc(-c2cnc(-c3ccc(NS(=O)(=O)c4ccccc4)cc3)s2)c(S(=O)(=O)NC(C)(C)C)c1` [Compound G6] gave a pEC50 of over 5.00.

The molecule `CC(=O)Nc1ccc(-c2cnc(-c3ccc(N4CCOC4=O)cc3)s2)c(S(=O)(=O)NC(C)(C)C)c1` [Compound J19, N-[3-(tert-butylsulfamoyl)-4-[2-[4-(2-oxooxazolidin-3-yl)phenyl]thiazol-5-yl]phenyl]acetamide] showed a pEC50 of under 5.00.

With `CC(C)N(C)C(=O)Nc1ccc(-c2ncc(-c3ccc(N4CCCC4=O)cc3S(=O)(=O)NC(C)(C)C)s2)cc1` [Compound A7], the pEC50 is over 5.00.

On to `CC(C)OC(=O)Nc1ccc(-c2ncc(-c3ccc(N4CCOC4=O)cc3S(=O)(=O)NC(C)(C)C)s2)cc1` [Compound J23, isopropyl N-[4-[5-[2-(tert-butylsulfamoyl)-4-(2-oxooxazolidin-3-yl)phenyl]thiazol-2-yl]phenyl]carbamate], for which the pEC50 was over 5.30.

Consider `CC(C)OC(=O)Nc1ccc(-c2ncc(-c3ccc(NS(=O)(=O)c4ccccc4)cc3S(=O)(=O)NC(C)(C)C)s2)cc1` [Compound E1], for which the pEC50 is under 5.00.

Regarding `CC(C)NC(=S)Nc1ccc(-c2ncc(-c3ccc(NC(=O)OC(C)c4ccccc4)cc3S(=O)(=O)NC(C)(C)C)s2)cc1` (stereo not shown) [Compound M8], the pEC50 is over 5.00.

`CC(C)OC(=O)Nc1ccc(-c2ncc(-c3ccc(CNC(=O)c4cncnc4)cc3S(=O)(=O)NC(C)(C)C)s2)cc1` [Compound O8] showed a pEC50 of over 5.00.

Molecule `CC(=O)Nc1ccc(-c2cnc(-c3ccc(OC(=O)NC(C)C)cc3)s2)c(S(=O)(=O)NC(C)(C)C)c1` [Compound A5] gave a pEC50 of over 5.30.

On to `CC(C)(C)NS(=O)(=O)c1cc(Nc2nccs2)ccc1-c1cnc(-c2ccc(N)cc2)s1` [Compound E12], for which the pEC50 was under 5.00.

In turn, `CC(=O)Nc1ccc(-c2cnc(-c3ccc(NCC(C)O)cc3)s2)c(S(=O)(=O)NC(C)(C)C)c1` (stereo not shown) [Compound J11] had a negative-log EC50 (pEC50) of under 5.00.

With `CC(=O)Nc1ccc(-c2cnc(-c3ccc(NC(=S)NCc4ccccc4)cc3)s2)c(S(=O)(=O)NC(C)(C)C)c1` [Compound L9], the pEC50 is over 5.30.

With `CC(=O)Nc1ccc(-c2cnc(-c3ccc(NC(=O)OC(C)C)nc3)s2)c(S(=O)(=O)NC(C)(C)C)c1` [Compound J5], the pEC50 is over 6.00.

`CC(=O)Nc1ccc(-c2cnc(-c3ccc(N)cc3)s2)c(S(=O)(=O)NC(C)(C)C)c1` [Compound A4] showed a pEC50 of over 5.00.

As to `CC(=O)Nc1ccc(-c2cnc(-c3ccc(NC(=S)NC(C)C)cc3)s2)c(S(=O)(=O)NCc2ccccn2)c1` [Compound D3], the pEC50 is under 5.00.

`CC(=O)Nc1ccc(-c2cnc(-c3ccc(NC(=S)NC(C)C)cc3)s2)c(S(=O)(=O)N[C@@H](C)CO)c1` [Compound D5] had a pEC50 of under 5.00.

Regarding `CC(=O)Nc1ccc(-c2cnc(-c3ccc(NC(=S)NC(C)C)cc3)s2)c(S(=O)(=O)N2C3CCC2CC3)c1` [Compound D22], the pEC50 is over 6.00.

`CNS(=O)(=O)Nc1ccc(-c2ncc(-c3ccc(NC(C)=O)cc3S(=O)(=O)NC(C)(C)C)s2)cc1` [Compound G9] had a pEC50 of under 5.00.

Regarding `CC(C)OC(=O)Nc1ccc(-c2ncc(-c3ccc(CNC(=O)OCc4ccccc4)cc3S(=O)(=O)NC(C)(C)C)s2)cc1` [Compound Q2, isopropyl N-[4-[5-[4-(benzyloxycarbonylaminomethyl)-2-(tert-butylsulfamoyl)phenyl]thiazol-2-yl]phenyl]carbamate], the pEC50 was under 5.00.

`Cn1ccnc1Nc1ccc(-c2cnc(-c3ccc(N)cc3)s2)c(S(N)(=O)=O)c1` [Compound E18] showed a negative-log EC50 (pEC50) of under 5.00.

As for `CC(C)OC(=O)Nc1ccc(-c2ncc(-c3ccc(N4CCC(Cc5ccccc5)C4=O)cc3S(=O)(=O)NC(C)(C)C)s2)cc1` (stereo not shown) [Compound J28, isopropyl (4-(5-(4-(3-benzyl-2-oxopyrrolidin-1-yl)-2-(N-(tert-butyl)sulfamoyl)phenyl)thiazol-2-yl)phenyl)carbamate], the pEC50 was under 5.00.

`CCOC(=O)Nc1ccc(-c2ncc(-c3ccc(NC(C)=O)cc3S(=O)(=O)NC(C)(C)C)s2)cc1` [Compound G3] gave a pEC50 of over 6.00.

With `COc1cc(-c2ncc(-c3ccc(NC(=O)OCc4ccccc4)cc3S(=O)(=O)NC(C)(C)C)s2)ccc1NC(=O)OC(C)C` [Compound R7], the pEC50 is over 6.00.

With `CC(=O)Nc1ccc(-c2cnc(-c3ccc(NC(=S)NC(C)C)cc3)s2)c(S(=O)(=O)NCCCN(C)C)c1` [Compound D25], the pEC50 was over 6.00.

`CCNc1ccc(-c2cnc(-c3ccc(NC(=O)OC(C)C)cc3)s2)c(S(=O)(=O)NC(C)(C)C)c1` [Compound I1, isopropyl N-[4-[5-[2-(tert-butylsulfamoyl)-4-(ethylamino)phenyl]thiazol-2-yl]phenyl]carbamate] gave a pEC50 of over 5.30.

The molecule `CC(C)OC(=O)Nc1ccc(-c2ncc(-c3ccc(NC4(C)COC4)cc3S(=O)(=O)NC(C)(C)C)s2)cc1` [Compound I4] had a pEC50 of over 5.30.

`CC(C)OC(=O)Nc1ccc(-c2ncc(-c3ccc(NC(=O)NCc4ccccc4)cc3S(=O)(=O)NC(C)(C)C)s2)cc1` [Compound A2] gave a pEC50 of over 6.00.

The molecule `CC(=O)Nc1ccc(-c2cnc(-c3ccc(NC(=S)NC(C)C)cc3)s2)c(S(=O)(=O)NC(C)(C)C)c1` [Compound D30] gave a negative-log EC50 (pEC50) of over 5.30.

Molecule `CC(C)OC(=O)Nc1ccc(-c2ncc(-c3ccc(NC(=O)[C@@H]4CCCN4)cc3S(=O)(=O)NC(C)(C)C)s2)cc1` [Compound H1] gave a pEC50 of over 5.30.

The molecule `CC(O)CNc1ccc(-c2cnc(-c3ccc(NC(=O)OC(C)C)cc3)s2)c(S(=O)(=O)NC(C)(C)C)c1` (stereo not shown) [Compound J25, isopropyl N-[4-[5-[2-(tert-butylsulfamoyl)-4-(2-hydroxypropylamino)phenyl]thiazol-2-yl]phenyl]carbamate] gave a negative logarithm of the EC50 (pEC50) of over 5.30.

The molecule `CC(C)OC(=O)Nc1ccc(-c2ncc(-c3ccc(NC(=O)OCc4nccs4)cc3S(=O)(=O)NC(C)(C)C)s2)cc1` [Compound B11] gave a pEC50 of over 6.00.

In turn, `CC(C)NC(=S)Nc1ccc(-c2ncc(-c3ccc(N(C)C(=O)N(C)Cc4ccccc4)cc3S(=O)(=O)NC(C)(C)C)s2)cc1` [Compound Q4] had a pEC50 of over 6.00.

Consider `CC(C)OC(=O)Nc1ccc(-c2ncc(-c3ccc(N4CC(C)OC4=O)cc3S(=O)(=O)NC(C)(C)C)s2)cc1` (stereo not shown) [Compound J26, isopropyl (4-(5-(2-(N-(tert-butyl)sulfamoyl)-4-(5-methyl-2-oxooxazolidin-3-yl)phenyl)thiazol-2-yl)phenyl)carbamate], for which the negative-log EC50 (pEC50) was over 5.00.

`CC(C)OC(=O)Nc1ccc(-c2ncc(-c3ccc(CO)cc3S(=O)(=O)NC(C)(C)C)s2)cc1` [Compound J1] showed a pEC50 of over 5.30.

`CC(C)OC(=O)Nc1ccc(-c2ncc(-c3ccc(NC(=O)OCc4ncc[nH]4)cc3S(=O)(=O)NC(C)(C)C)s2)cc1` [Compound B14] gave a pEC50 of over 5.00.

In turn, `CC(C)OC(=O)Nc1ccc(-c2ncc(-c3ccc(NC(=O)OC(C)c4ccccc4)cc3S(=O)(=O)NC(C)(C)C)s2)cc1` (stereo not shown) [Compound B15] gave a pEC50 of over 6.00.

`CC(C)OC(=O)Nc1ccc(-c2ncc(-c3ccc(CNS(=O)(=O)c4ccccc4)cc3S(=O)(=O)NC(C)(C)C)s2)cc1` [Compound P6] had a pEC50 of over 5.00.
